From EP3868759A1, “2,3,5-SUBSTITUTED PYRROLO[2,3-B]PYRIDINES AS ERBB MODULATORS USEFUL FOR TREATING CANCER” (PearlRiver Bio GmbH, priority 2020, dated 2021) come the findings set out here.

Experiment [1] has as its system Cuto-17. As to the kind of experiment: CellTiter-Glo cell viability, Cuto-17. Format: cell-based. The following applies: CUTO17, 72 h, read-out: Cuto-17 CTG IC50. How it is done: (§1) The CellTiter-Glo Luminescent Cell Viability Assay (Promega) is a homogeneous method of determining the number of viable cells in culture. It is based on quantification of ATP, indicating the presence of metabolically active cells. Cells are seeded on day 1 at cell numbers that assure assay linearity and optimal signal intensity. After incubation for 24h in humidified chambers at 37°C and 5% CO2, compounds in DMSO are added at different concentrations. Cells are further incubated for 72 h at 37°C and 5% CO2. Cells treated with the compound vehicle DMSO are used as positive controls and cells treated with 10 µM Staurosporine serve as negative controls. At day 5 the CellTiter Glo Reagent is prepared according to the instructions of the kit (Promega Inc.): Reagent is mixed 1:1 with cell culture medium. Thereon, mixture and assay plates are equilibrated at room temperature for 20 min. Equal volumes of the reagent-medium-mixture is added to the volume of culture medium present in each well. The plates are mixed at ∼200 rpm for 2 minutes on an orbital shaker. The microplates are then incubated at room temperature for 10 minutes for stabilization of the luminescent signal. Following incubation the luminescence is recorded on a Victor microplate reader (Perkin Elmer) using a 200 ms integration time. The data is then analyzed with Excel using the XLFIT Plugin (dose response Fit 205) for IC50-determination. As quality control the Z'-factor is calculated from 16 positive and negative control values. Only assay results showing a Z'-factor ≥ 0.5 are used for further analysis.

Experiment [2] has as its system EGFR vIII Ba/F3. As to the kind of experiment: CellTiter-Glo cell viability, EGFR vIII Ba/F3. The experiment is classed as cell-based. The following applies: Mus musculus, BaF3, 72 h, read-out: EGFR vIII Ba/F3 CTG IC50 /. How it is done:
as §1
(ATP-based viability assays read luminescence as a measure of living cells.)

In experiment [3] the test system is EGFR Exon 20 InsNPH Ba/F3. Briefly: CellTiter-Glo cell viability, EGFR Exon 20 InsNPH Ba/F3. Format: cell-based. The following applies: Mus musculus, BaF3, 72 h, read-out: EGFR Exon 20 InsNPH Ba/F3 CTG IC50. As for the experimental part:
as §1

The test system of experiment [4] is A431. As to the kind of experiment: CellTiter-Glo cell viability, A431. The experiment is classed as cell-based. The following applies: Homo sapiens, A-431, 72 h, read-out: A431 CTG IC50. As for the experimental part: as §1
Experiment [5] deals with EGFR T790M L858R (Homo sapiens, UniProt P00533, L858R/T790M). Briefly: Lance assay, EGFR T790M L858R. The following applies: biochemical Lance assay.
Experiment [6] concerns the target T1, HER2 INS YVMA (Homo sapiens, UniProt P04626, INS775YVMA).
T1 construct: purchased DPF
Briefly: Lance Kinase Activity Assay, Her2 Exon 20 InsYVMA. The following applies: biochemical Lance assay. As for the experimental part:
This protocol describes how the Lance Kinase Activity Assay was performed to determine IC50 values of compounds of general formula (I) against HER2 INS YVMA. The principle behind this enzymatic assay is based upon the phosphorylation of the Ulight-peptide substrate. It is detected by using a specific EU-labeled anti-phospho peptide antibody. The binding of the Eu labeled anti-phospho peptide antibody to the phosphorylated ULight labeled peptide gives rise to a FRET-signal. Binding of an inhibitor to the kinase prevents phosphorylation of the Ulight-substrate, resulting in a loss of FRET. In table 2 is summarized the relevant information for the LANCE assay. Table 2: Reagents, stock concentrations and final assay concentrations for Her2 INS YVMA.
The compounds of general formula (I) summarized in Table 3 were serial diluted from a 10 mM DMSO stock solution 1:3 over 8 steps in a total volume of 20 µl. For every sample, 8 µl of kinase-substrate mix was transferred into a suitable assay plate (e.g. Corning #3673). Compound was added via pintool transfer (10nl/well) using a Biomek FX robot (BeckmanCoulter). Reaction was started by addition of 2µl ATP working solution and mixed using variomag teleshaker (Thermo Fischer Scientific). After 1 h incubation at room temperature the reaction was stopped with 10µl detection mix containing the Eu-labeled phosphospecific antibody and 10mM EDTA. After a second incubation period of 1 h at room temperature the FRET signal was measured at 340 nm excitation, 665 nm and 615 nm emission (for the ULight-substrate and Eu-AB, respectively) with an Envision spectrophotometer (Perkin Elmer, Waltham, MA, USA) with 50 µs delay and 300 µs integration time. IC50 values were determined from the sigmoidal dose response curves with the software Quattro Workflow (Quattro GmbH, Munich, Germany).

Experiment [7] relates to H1975. Briefly: CellTiter-Glo cell viability, H1975. Format: cell-based. The following applies: Homo sapiens, NCI-H1975, 72 h, read-out: H1975 CTG IC50. As for the experimental part:
as §1

The target in experiment [8] is EGFR wt (Homo sapiens, UniProt P00533). Briefly: Lance assay, EGFR wt. The following applies: biochemical Lance assay.
Experiment [9] has as its system Her2 Exon 20 InsYVMA Ba/F3. As to the kind of experiment: CellTiter-Glo cell viability, Her2 Exon 20 InsYVMA Ba/F3. The experiment is classed as cell-based. The following applies: Mus musculus, BaF3, 72 h, read-out: Her2 Exon 20 InsYVMA Ba/F3 CTG IC50. As for the experimental part: as §1

Molecules are shown by their SMILES.

T1 sequence (P04626 with tags, fused parts or gaps INS775YVMA): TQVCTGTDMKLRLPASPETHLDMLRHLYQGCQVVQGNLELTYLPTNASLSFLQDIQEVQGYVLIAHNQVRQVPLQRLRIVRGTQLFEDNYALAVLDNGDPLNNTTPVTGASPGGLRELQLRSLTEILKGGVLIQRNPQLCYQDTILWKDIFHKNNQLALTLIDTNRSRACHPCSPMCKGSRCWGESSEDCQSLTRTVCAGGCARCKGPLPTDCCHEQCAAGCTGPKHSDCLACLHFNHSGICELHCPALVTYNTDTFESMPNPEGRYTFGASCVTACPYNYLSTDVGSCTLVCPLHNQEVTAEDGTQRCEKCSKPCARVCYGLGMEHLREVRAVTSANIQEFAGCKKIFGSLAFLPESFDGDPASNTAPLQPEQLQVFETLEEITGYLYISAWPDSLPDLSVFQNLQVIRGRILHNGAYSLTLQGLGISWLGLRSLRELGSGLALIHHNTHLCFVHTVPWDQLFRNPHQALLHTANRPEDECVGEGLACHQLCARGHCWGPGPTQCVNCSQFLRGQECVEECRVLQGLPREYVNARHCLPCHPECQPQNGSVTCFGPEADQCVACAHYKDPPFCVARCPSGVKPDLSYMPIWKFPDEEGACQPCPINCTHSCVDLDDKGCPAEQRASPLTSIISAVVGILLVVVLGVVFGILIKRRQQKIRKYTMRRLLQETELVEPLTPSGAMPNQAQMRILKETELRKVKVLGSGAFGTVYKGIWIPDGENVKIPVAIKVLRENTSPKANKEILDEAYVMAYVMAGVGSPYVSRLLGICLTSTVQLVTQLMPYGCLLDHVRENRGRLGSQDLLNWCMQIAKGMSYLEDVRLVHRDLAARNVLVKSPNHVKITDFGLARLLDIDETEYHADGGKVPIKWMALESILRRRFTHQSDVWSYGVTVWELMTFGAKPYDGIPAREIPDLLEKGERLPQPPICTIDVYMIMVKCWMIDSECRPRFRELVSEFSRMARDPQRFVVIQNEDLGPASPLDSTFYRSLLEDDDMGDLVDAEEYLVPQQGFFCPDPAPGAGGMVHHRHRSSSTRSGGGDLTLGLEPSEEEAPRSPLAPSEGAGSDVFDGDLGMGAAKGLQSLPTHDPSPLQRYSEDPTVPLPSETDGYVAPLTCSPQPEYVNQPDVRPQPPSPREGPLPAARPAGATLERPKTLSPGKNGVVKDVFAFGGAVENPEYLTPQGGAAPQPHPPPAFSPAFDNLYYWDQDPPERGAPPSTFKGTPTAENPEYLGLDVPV
Chain of EGFR T790M L858R (P00533 25-1210 T790M/L858R): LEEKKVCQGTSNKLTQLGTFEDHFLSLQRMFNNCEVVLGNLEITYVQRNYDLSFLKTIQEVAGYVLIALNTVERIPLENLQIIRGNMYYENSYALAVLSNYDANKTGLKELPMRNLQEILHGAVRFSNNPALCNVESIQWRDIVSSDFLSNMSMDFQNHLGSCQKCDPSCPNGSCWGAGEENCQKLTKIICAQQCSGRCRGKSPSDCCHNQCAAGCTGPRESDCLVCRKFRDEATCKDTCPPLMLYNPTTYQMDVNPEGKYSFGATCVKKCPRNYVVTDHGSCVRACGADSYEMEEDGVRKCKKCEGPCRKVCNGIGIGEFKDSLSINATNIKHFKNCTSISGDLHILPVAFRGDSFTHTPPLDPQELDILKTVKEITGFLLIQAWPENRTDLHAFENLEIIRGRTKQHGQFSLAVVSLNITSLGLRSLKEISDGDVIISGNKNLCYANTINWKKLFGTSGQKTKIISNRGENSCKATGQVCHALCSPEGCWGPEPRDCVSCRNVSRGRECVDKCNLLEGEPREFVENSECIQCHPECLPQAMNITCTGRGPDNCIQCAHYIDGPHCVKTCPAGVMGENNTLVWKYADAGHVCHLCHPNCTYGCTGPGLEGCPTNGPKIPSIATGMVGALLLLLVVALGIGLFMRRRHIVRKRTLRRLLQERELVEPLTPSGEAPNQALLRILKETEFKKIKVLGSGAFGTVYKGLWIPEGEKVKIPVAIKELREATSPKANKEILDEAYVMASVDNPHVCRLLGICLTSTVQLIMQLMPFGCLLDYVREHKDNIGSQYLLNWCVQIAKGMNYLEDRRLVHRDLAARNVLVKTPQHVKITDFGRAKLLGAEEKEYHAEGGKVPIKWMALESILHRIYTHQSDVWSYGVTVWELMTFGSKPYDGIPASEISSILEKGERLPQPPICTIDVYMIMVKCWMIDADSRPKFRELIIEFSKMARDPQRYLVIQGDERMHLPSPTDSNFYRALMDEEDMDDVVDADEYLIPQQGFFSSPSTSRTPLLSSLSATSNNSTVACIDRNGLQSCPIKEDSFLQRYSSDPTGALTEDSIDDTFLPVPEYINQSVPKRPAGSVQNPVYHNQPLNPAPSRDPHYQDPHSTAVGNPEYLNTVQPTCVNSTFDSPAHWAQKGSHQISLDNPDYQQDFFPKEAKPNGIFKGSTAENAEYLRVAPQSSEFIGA
Chain of EGFR wt (P00533 25-1210): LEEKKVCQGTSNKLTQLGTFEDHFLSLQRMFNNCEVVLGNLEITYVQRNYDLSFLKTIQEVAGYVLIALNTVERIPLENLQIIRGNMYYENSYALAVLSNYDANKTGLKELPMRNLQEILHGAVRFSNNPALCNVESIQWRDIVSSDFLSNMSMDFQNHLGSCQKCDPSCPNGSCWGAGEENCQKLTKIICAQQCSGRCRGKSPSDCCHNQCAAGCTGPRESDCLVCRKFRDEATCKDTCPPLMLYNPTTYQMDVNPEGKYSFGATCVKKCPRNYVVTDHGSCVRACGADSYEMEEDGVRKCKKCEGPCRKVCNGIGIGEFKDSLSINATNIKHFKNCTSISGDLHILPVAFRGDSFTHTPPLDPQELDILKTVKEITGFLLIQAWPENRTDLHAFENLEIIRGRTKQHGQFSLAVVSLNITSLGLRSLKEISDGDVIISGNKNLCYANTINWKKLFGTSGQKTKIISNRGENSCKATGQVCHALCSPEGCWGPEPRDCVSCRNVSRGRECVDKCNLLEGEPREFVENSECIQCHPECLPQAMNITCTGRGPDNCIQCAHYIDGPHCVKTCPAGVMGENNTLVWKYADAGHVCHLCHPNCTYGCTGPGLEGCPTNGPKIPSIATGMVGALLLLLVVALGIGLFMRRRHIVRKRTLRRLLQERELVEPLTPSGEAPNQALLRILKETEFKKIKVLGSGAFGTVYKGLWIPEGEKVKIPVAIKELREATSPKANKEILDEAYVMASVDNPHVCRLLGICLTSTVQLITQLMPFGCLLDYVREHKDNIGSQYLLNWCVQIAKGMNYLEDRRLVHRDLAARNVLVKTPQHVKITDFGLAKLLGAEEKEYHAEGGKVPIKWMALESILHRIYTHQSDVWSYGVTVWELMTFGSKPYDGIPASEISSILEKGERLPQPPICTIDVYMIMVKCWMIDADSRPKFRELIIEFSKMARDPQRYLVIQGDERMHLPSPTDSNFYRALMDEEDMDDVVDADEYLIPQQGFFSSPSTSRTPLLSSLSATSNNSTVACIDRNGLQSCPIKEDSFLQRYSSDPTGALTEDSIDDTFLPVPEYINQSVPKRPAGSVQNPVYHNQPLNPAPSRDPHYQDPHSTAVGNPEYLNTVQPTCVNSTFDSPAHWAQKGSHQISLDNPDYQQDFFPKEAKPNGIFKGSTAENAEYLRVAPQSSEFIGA

As for `C=CC(=O)Nc1cc(-c2c(-c3cnn(C)c3)[nH]c3ncc(C(=O)OC(C)C)cc23)cc(F)c1C` [Example 2, Isopropyl 3-(3-acrylamido-5-fluoro-4-methylphenyl)-2-(1-methyl-1H-pyrazol-4-yl)-1H-pyrrolo[2,3-b]pyridine-5-carboxylate 2,2,2-trifluoroacetate], the IC50 in experiment [1] is 0.1 to 0.5 µM; in experiment [2], at most 0.05 µM; in experiment [3], 0.1 to 0.5 µM; in experiment [4], 1 to 10 µM; in experiment [5] it was at most 0.05 µM; in experiment [6] it was at most 0.05 µM. Moreover, the figures for the IC50 in experiment [7], in experiment [8] and in experiment [9] were 0.1 to 0.5 µM, at most 0.05 µM and 0.1 to 0.5 µM, respectively.

In the case of `C=CC(=O)Nc1cc(-c2c(-c3cnn(C)c3)[nH]c3ncc(OCC)cc23)cc(F)c1C` [Example 3, N-(5-(5-ethoxy-2-(1-methyl-1H-pyrazol-4-yl)-1H-pyrrolo[2,3-b]pyridin-3-yl)-3-fluoro-2-methylphenyl)acrylamide 2,2,2-trifluoroacetate], the IC50 is at most 0.05 µM in experiment [1]; at most 0.05 µM in [2]; 0.05 to 0.1 µM in experiment [3]; 1 to 10 µM in experiment [4]; at most 0.05 µM in experiment [5]; at most 0.05 µM in [6]. Further, the IC50 was 0.1 to 0.5 µM in experiment [7], at most 0.05 µM in experiment [8] and 0.1 to 0.5 µM in experiment [9].

`C=CC(=O)Nc1cc(-c2c(-c3cnn(CC)c3)[nH]c3ncc(C(=O)OC(C)C)cc23)ccc1C` [Example 6, isopropyl 3-(3-acrylamido-4-methylphenyl)-2-(1-ethyl-1H-pyrazol-4-yl)-1H-pyrrolo[2,3-b]pyridine-5-carboxylate]: the IC50 in experiment [1] was 0.5 to 1 µM; in [2], 0.1 to 0.5 µM; in experiment [3], 0.1 to 0.5 µM; in [4], 1 to 10 µM; in experiment [5], at most 0.05 µM; in experiment [6], at most 0.05 µM. For the same molecule, the IC50 was 0.5 to 1 µM in experiment [7], at most 0.05 µM in [8] and 0.1 to 0.5 µM in experiment [9].

With `C=CC(=O)Nc1cc(-c2c(-c3cnn(CC)c3)[nH]c3ncc(C(=O)OC(C)C)c(C)c23)ccc1C` [Example 8, isopropyl 3-(3-acrylamido-4-methylphenyl)-2-(1-ethyl-1 H-pyrazol-4-yl)-4-methyl-1 H-pyrrolo[2,3-b]pyridine-5-carboxylate], the IC50 was 0.1 to 0.5 µM in experiment [1]; 0.1 to 0.5 µM in experiment [2]; at most 0.05 µM in experiment [3]; 1 to 10 µM in [4]; at most 0.05 µM in [5]; at most 0.05 µM in experiment [6]. Further, the IC50 is 0.1 to 0.5 µM in [7], at most 0.05 µM in experiment [8] and 0.1 to 0.5 µM in experiment [9].

As to `C=CC(=O)Nc1cc(-c2c(-c3cnn(Cc4ccccc4)c3)[nH]c3ncc(C(=O)OC(C)C)c(C)c23)ccc1C` [Example 9, isopropyl 3-(3-acrylamido-4-methylphenyl)-2-(1-benzyl-1 H-pyrazol-4-yl)-4-methyl-1 H-pyrrolo[2,3-b]pyridine-5-carboxylate], the IC50 in [1] fell in the range of 0.5 to 1 µM; in experiment [2], 0.1 to 0.5 µM; in experiment [3] it was 0.1 to 0.5 µM; in experiment [4], 1 to 10 µM; in experiment [5], 0.1 to 0.5 µM; in [6], 0.5 to 1 µM. Further, the results for the IC50 in experiment [7], in [8] and in experiment [9] were 0.5 to 1 µM, at most 0.05 µM and 0.5 to 1 µM, respectively.

Take `C=CC(=O)Nc1cc(-c2c(-c3cnn(C4CC4)c3)[nH]c3ncc(C(=O)OC(C)C)c(C)c23)ccc1C` [Example 10, isopropyl 3-(3-acrylamido-4-methylphenyl)-2-(1-cyclopropyl-1 H-pyrazol-4-yl)-4-methyl-1 H-pyrrolo[2,3-b]pyridine-5-carboxylate]: the IC50 in experiment [1] was in the range of 0.1 to 0.5 µM; in experiment [2], 0.1 to 0.5 µM; in [3], 0.05 to 0.1 µM; in experiment [4], 1 to 10 µM; in experiment [5], 0.05 to 0.1 µM; in experiment [6], 0.05 to 0.1 µM. In addition, the IC50 in experiment [7] is 0.5 to 1 µM; in [8] it was at most 0.05 µM; in experiment [9], 0.1 to 0.5 µM.

Turning to `C=CC(=O)Nc1cc(-c2c(-c3cnn(CCOC)c3)[nH]c3ncc(C(=O)OC(C)C)c(C)c23)ccc1C` [Example 11, isopropyl 3-(3-acrylamido-4-methylphenyl)-2-(1-(2-methoxyethyl)-1 H-pyrazol-4-yl)-4-methyl-1 H-pyrrolo[2,3-b]pyridine-5-carboxylate], the IC50 is 0.1 to 0.5 µM in experiment [1]; 0.1 to 0.5 µM in experiment [2]; 0.1 to 0.5 µM in experiment [3]; 1 to 10 µM in experiment [4]; at most 0.05 µM in experiment [5]; at most 0.05 µM in experiment [6]. Moreover, the IC50 in experiment [7] was 0.5 to 1 µM; in [8], at most 0.05 µM; in experiment [9] it was 0.1 to 0.5 µM.

With `C=CC(=O)Nc1cc(-c2c(-c3cnn(C)c3)[nH]c3ncc(O[C@@H](C)CC)cc23)ccc1C` [Example 12, (S)-N-(5-(5-(sec-butoxy)-2-(1-methyl-1H-pyrazol-4-yl)-1H-pyrrolo[2,3-b]pyridin-3-yl)-2-methylphenyl)acrylamide 2,2,2-trifluoroacetate], the IC50 in experiment [1] is 0.1 to 0.5 µM; in [2], 0.1 to 0.5 µM; in [3], 0.1 to 0.5 µM; in experiment [4], 1 to 10 µM; in experiment [5] it was at most 0.05 µM; in experiment [6] it was at most 0.05 µM. Further, the IC50 in [7] is 0.5 to 1 µM; in experiment [8] it was at most 0.05 µM; in [9] it was 0.1 to 0.5 µM.

For `C=CC(=O)Nc1cc(-c2c(-c3cnn(C(C)C)c3)[nH]c3ncc(C(=O)OC(C)C)c(C)c23)ccc1C` [Example 13, isopropyl 3-(3-acrylamido-4-methylphenyl)-2-(1-isopropyl-1 H-pyrazol-4-yl)-4-methyl-1H-pyrrolo[2,3-b]pyridine-5-carboxylate], the IC50 was 0.1 to 0.5 µM in experiment [1]; 0.1 to 0.5 µM in [2]; at most 0.05 µM in experiment [3]; 1 to 10 µM in [4]; 0.05 to 0.1 µM in experiment [5]; 0.1 to 0.5 µM in [6]. Moreover, the IC50 in experiment [7] is 0.1 to 0.5 µM; in experiment [8], at most 0.05 µM; in [9], 0.1 to 0.5 µM.

Turning to `C=CC(=O)Nc1cc(-c2c(-c3cnn(CCC)c3)[nH]c3ncc(C(=O)OC(C)C)c(C)c23)ccc1C` [Example 14, isopropyl 3-(3-acrylamido-4-methylphenyl)-4-methyl-2-(1-propyl-1 H-pyrazol-4-yl)-1H-pyrrolo[2,3-b]pyridine-5-carboxylate], the IC50 in experiment [1] lay within 0.1 to 0.5 µM; in [2] it was 0.1 to 0.5 µM; in [3], 0.05 to 0.1 µM; in [4], 1 to 10 µM; in experiment [5], 0.05 to 0.1 µM; in [6], 0.1 to 0.5 µM. The results for the IC50 in [7], in [8] and in experiment [9] were 0.1 to 0.5 µM, at most 0.05 µM and 0.1 to 0.5 µM, respectively.
